Our source for the IC50 and Kd values is US20230331737A1, “MTORC1 MODULATORS AND USES THEREOF” (Aeovian Pharmaceuticals, Inc., priority 2020, published 2023).

SMILES strings stand for the structures.

One assay has as its target mTORC2 (Homo sapiens, UniProt P42345+P62942). In words: mTORC2 inhibition in PC3 cells, AlphaLISA of pAKT pS473 levels. For orientation: Alpha assays give light when donor and acceptor beads are brought close together.
In a further assay the target is T1, mTORC1 (Homo sapiens, UniProt P42345+P62942).
T1 construct: endogenous in cells; host or cells: PC-3 cells
Kind of assay: mTORC1 inhibition in PC-3 cells, AlphaLISA of p70S6K pT389 levels. The class given is cell-based. The following applies: mTORC1 as measured by inhibition of p70S6K pT389 levels, read-out: mTROC1 IC50. The procedure:
mTORC1 inhibition was determined via analysis of phosphorylation levels of Phospho-p70 S6 kinase (p70S6K pT389) and Phospho-S6 Ribosomal Protein (pRPS6 pS240/pS244) with the corresponding AlphaLISA kits (PerkinElmer Alpha SF Ultra™ Multiplex phospho (Thr389)/total p70 S6K Assay Kit (Eu/Tb) and AlphaLISA SF Ultra™ p-Ribosomal Protein S6 (Ser240/244) Assay Kit).
%−activity=100*((Sample−Low control)/(High control−Low control))

Assay [1] has as its target FKBP12 ternary complex with FRB (Homo sapiens, UniProt P42345+P62942). Kind of assay: SPR assay to characterize ternary complex formation with FKBP12 (FRB injected over compound-saturated FKBP12). To be noted: FRB dilutions with 100 nM test compound over immobilized FKBP12. The class given is binding. In general terms: Surface plasmon resonance follows binding to a sensor surface in real time, without labels.

Another assay concerns the target FKBP12 (Homo sapiens, UniProt P62942). Kind of assay: SPR assay to determine binding affinity to FKBP12 (direct binding). The following applies: immobilized biotinylated avi-FKBP12, single-cycle kinetics.

FKBP12, sequence (P62942 whole entry, species assumed): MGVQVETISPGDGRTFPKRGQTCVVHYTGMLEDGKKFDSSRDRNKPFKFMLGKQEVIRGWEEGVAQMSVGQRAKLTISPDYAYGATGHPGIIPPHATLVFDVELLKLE
mTORC2, sequence (P62942 2-108 limits assumed, other chains not shown): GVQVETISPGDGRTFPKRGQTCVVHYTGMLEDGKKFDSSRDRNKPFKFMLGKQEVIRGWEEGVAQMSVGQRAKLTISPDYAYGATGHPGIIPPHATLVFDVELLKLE

Consider `CO[C@H]1C[C@@H]2CC[C@@H](C)[C@@](O)(O2)C(=O)C(=O)N2CCCC[C@H]2C(=O)O[C@H]([C@H](C)C[C@@H]2CC[C@@H](OCCO)[C@H](OC)C2)CC(=O)[C@H](C)/C=C(\C)[C@@H](O)[C@@H](OC)C(=O)[C@H](C)C[C@H](C)/C=C/C=C/C=C/1C` [everolimus], for which the IC50 against mTORC2 was less than 10 nM.
`CO[C@@H]1C[C@H](C[C@@H](C)[C@@H]2CC(=O)[C@H](C)/C=C(\C)[C@@H](O)[C@@H](OC)C(=O)[C@H](C)C[C@H](C)/C=C/C=C/C=C(\C)[C@@H](OCCOCCO)C[C@@H]3CC[C@@H](C)[C@@](O)(O3)C(=O)C(=O)N3CCCC[C@H]3C(=O)O2)CC[C@H]1O` [Compound 524, (1R,9S,12S,15R,16E,18R,19R,21R,23S,24E,26E,28E,30S,32S,35R)-1,18-dihydroxy-30-[2-(2-hydroxyethoxy)ethoxy]-12-[(1R)-2-[(1S,3R,4R)-4-hydroxy-3-methoxy-cyclohexyl]-1-methyl-ethyl]-19-methoxy-15,17,21,23,29,35-hexamethyl-11,36-dioxa-4-azatricyclo[30.3.1.04,9]hexatriaconta-16,24,26,28-tetraene-2,3,10,14,20-pentone]: the IC50 on mTORC1 is less than 0.8 nM. The Kd was 500 to 1100 nM in assay [1] and less than 0.3 nM on FKBP12.
Consider `CO[C@@H]1C[C@H](C[C@@H](C)[C@@H]2CC(=O)[C@H](C)/C=C(\C)[C@@H](O)[C@@H](OC)C(=O)[C@H](C)C[C@H](C)/C=C/C=C/C=C(\C)[C@@H](OCCCCO)C[C@@H]3CC[C@@H](C)[C@@](O)(O3)C(=O)C(=O)N3CCCC[C@H]3C(=O)O2)CC[C@H]1OCCCN1CCOCC1` [Compound 426, (1R,9S,12S,15R,16E,18R,19R,21R,23S,24E,26E,28E,30S,32S,35R)-1,18-dihydroxy-30-(4-hydroxybutoxy)-19-methoxy-12-[(1R)-2-[(1S,3R,4R)-3-methoxy-4-(3-morpholinopropoxy)cyclohexyl]-1-methyl-ethyl]-15,17,21,23,29,35-hexamethyl-11,36-dioxa-4-azatricyclo[30.3.1.0^4,9]hexatriaconta-16,24,26,28-tetraene-2,3,10,14,20-pentone], for which, at mTORC1, the IC50 fell in the range of 0.8 to 1.5 nM. The Kd is 500 to 1100 nM in assay [1] and less than 0.3 nM on FKBP12.

In general, IC50 refers to the concentration needed to halve the response being measured. The Kd is the concentration at which binding is half-saturated. Read a high Kd as a looser complex.
